Test results from ChEMBL document CHEMBL1139297, “Synthesis and stereochemical effects of pyrrolidinyl-acetylenic thieno[3,2-d]pyrimidines as EGFR and ErbB-2 inhibitors” (Bioorg Med Chem Lett, 2009).

Experiments:
BT-474 = assay: Antiproliferative activity against human BT474 cells overexpressing ERBb2 after 3 days by methylene blue staining; assay type: functional, cell-based; conditions: BT-474, 72 h
HN5 = assay: Antiproliferative activity against human HN5 cells overexpressing EGFR after 3 days by methylene blue staining; conditions: HN5, 72 h
HFF = assay: Antiproliferative activity against human HFF cells after 3 days by methylene blue staining; conditions: 72 h
[1] = biological target: T1, Epidermal growth factor receptor (Homo sapiens, UniProt P00533); assay: Inhibition of EGFR by scintillation proximity assay
T1 sequence (P00533 whole entry): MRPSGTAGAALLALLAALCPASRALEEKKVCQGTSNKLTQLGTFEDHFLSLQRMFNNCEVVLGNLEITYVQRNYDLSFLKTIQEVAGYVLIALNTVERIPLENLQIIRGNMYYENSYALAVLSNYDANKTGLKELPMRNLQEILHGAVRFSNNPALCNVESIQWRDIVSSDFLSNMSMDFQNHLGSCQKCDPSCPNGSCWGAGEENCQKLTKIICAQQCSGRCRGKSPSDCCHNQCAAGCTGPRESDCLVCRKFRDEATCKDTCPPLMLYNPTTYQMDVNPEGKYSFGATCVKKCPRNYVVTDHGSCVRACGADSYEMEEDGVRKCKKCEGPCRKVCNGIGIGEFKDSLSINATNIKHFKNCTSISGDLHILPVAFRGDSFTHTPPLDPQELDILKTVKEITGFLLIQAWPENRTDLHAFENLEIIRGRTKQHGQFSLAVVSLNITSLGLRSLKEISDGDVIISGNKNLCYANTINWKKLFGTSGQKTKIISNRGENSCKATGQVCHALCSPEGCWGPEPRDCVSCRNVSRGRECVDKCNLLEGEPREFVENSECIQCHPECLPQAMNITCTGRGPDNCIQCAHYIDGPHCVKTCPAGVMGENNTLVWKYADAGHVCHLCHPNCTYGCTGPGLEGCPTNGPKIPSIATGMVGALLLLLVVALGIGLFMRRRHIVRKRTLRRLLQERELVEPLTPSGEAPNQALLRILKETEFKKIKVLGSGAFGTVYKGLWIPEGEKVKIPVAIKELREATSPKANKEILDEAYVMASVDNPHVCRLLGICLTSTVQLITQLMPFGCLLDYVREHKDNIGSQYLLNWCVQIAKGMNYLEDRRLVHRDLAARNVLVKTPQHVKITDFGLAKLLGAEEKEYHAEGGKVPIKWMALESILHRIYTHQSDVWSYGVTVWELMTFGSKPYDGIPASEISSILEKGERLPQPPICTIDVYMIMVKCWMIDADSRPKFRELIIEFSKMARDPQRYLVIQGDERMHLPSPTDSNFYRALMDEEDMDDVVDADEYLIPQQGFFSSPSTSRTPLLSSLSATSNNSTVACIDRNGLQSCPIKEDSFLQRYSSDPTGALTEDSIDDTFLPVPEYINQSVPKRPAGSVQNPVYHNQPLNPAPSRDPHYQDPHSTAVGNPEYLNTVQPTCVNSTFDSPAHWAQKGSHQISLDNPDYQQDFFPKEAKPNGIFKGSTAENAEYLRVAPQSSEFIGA

[2] = biological target: T2, Receptor tyrosine-protein kinase erbB-2 (Homo sapiens, UniProt P04626); assay: Inhibition of ERBb2 by scintillation proximity assay
T2 sequence (P04626 whole entry): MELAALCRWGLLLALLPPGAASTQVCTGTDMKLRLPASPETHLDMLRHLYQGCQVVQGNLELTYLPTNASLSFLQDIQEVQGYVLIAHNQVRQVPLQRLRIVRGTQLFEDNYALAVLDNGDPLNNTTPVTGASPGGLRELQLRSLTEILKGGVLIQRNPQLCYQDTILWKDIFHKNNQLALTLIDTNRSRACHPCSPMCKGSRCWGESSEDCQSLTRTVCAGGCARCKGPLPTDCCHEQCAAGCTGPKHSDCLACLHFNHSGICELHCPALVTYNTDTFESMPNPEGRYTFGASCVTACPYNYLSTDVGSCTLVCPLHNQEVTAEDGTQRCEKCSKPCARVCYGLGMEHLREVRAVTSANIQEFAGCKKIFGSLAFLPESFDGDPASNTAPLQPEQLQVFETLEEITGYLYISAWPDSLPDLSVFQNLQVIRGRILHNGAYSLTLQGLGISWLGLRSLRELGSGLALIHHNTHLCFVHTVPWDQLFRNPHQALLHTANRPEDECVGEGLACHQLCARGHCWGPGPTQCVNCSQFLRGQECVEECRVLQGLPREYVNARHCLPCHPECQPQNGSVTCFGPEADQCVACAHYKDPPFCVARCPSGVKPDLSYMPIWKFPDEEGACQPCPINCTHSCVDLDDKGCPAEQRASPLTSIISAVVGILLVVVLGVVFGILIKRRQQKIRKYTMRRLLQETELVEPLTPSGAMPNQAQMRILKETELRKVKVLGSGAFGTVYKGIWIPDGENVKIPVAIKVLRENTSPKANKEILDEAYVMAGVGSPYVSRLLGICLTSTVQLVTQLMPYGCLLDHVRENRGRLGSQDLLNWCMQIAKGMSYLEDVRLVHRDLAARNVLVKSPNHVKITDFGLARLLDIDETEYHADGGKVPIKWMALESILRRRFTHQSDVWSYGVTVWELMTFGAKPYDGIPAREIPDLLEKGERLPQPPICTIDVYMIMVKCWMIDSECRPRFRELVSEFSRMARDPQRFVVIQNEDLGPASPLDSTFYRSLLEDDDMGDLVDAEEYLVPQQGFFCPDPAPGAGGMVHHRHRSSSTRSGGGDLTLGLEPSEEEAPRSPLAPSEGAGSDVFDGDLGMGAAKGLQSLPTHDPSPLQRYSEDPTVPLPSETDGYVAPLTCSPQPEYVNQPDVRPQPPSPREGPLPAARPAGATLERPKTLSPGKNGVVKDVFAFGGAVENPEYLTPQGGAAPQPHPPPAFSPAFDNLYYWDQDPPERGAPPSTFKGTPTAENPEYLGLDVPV

[3] = biological target: T1, Epidermal growth factor receptor; assay: Inhibition of EGFR by HTRF assay
[4] = biological target: T2, Receptor tyrosine-protein kinase erbB-2; assay: Inhibition of ERBb2 by HTRF assay

SMILES	EC50 (BT-474)	IC50 [3]	IC50 [4]	EC50 (HN5)	EC50 (HFF)	IC50 [1]	IC50 [2]
O=C(O[C@H]1CN[C@@H](C#Cc2cc3ncnc(Nc4ccc(OCc5cccc(F)c5)c(Cl)c4)c3s2)C1)N1CCOCC1	120 nM	–	–	–	–	–	–
O=C(O[C@H]1CN[C@H](C#Cc2cc3ncnc(Nc4ccc(OCc5cccc(F)c5)c(Cl)c4)c3s2)C1)N1CCCC1	60 nM	–	–	120 nM	3500 nM	99 nM	32 nM
NC(=O)O[C@H]1CN[C@H](C#Cc2cc3ncnc(Nc4ccc(OCc5cccc(F)c5)c(Cl)c4)c3s2)C1	25 nM	40 nM	16 nM	100 nM	5500 nM	–	–
CCNC(=O)O[C@@H]1CN[C@H](C#Cc2cc3ncnc(Nc4ccc(OCc5cccc(F)c5)c(Cl)c4)c3s2)C1	130 nM	–	–	–	–	–	–
CN(C)C(=O)O[C@@H]1CN[C@H](C#Cc2cc3ncnc(Nc4ccc(OCc5cccc(F)c5)c(Cl)c4)c3s2)C1	230 nM	–	–	–	–	–	–
O=C(O[C@H]1CN[C@H](C#Cc2cc3ncnc(Nc4ccc(OCc5cccc(F)c5)c(Cl)c4)c3s2)C1)N1CCNCC1	100 nM	63 nM	20 nM	400 nM	5100 nM	–	–
CS(=O)(=O)CCNC(=O)O[C@H]1CN[C@H](C#Cc2cc3ncnc(Nc4ccc(OCc5cccc(F)c5)c(Cl)c4)c3s2)C1	290 nM	40 nM	32 nM	30 nM	8200 nM	–	–
CCN(C)C(=O)O[C@H]1CN[C@H](C#Cc2cc3ncnc(Nc4ccc(OCc5cccc(F)c5)c(Cl)c4)c3s2)C1	90 nM	50 nM	32 nM	240 nM	3000 nM	–	–
CN(C)C(=O)O[C@H]1CN[C@H](C#Cc2cc3ncnc(Nc4ccc(OCc5cccc(F)c5)c(Cl)c4)c3s2)C1 [GSK-182497A]	30 nM	–	–	–	2800 nM	–	–
CCNC(=O)O[C@H]1CN[C@H](C#Cc2cc3ncnc(Nc4ccc(OCc5cccc(F)c5)c(Cl)c4)c3s2)C1 [GSK-192082A]	30 nM	–	–	95 nM	4200 nM	–	–
O=C(O[C@H]1CN[C@H](C#Cc2cc3ncnc(Nc4ccc(OCc5cccc(F)c5)c(Cl)c4)c3s2)C1)N1CCOCC1 [GW869810X]	30 nM	–	–	–	4900 nM	–	–

Now from value to molecule, other results behind:

EC50 (BT-474)	IC50 [3]	IC50 [4]	SMILES	EC50 (HN5)	EC50 (HFF)	IC50 [1]	IC50 [2]
140 nM	–	–	O=C(O[C@@H]1CN[C@H](C#Cc2cc3ncnc(Nc4ccc(OCc5cccc(F)c5)c(Cl)c4)c3s2)C1)N1CCOCC1	–	–	–	–
50 nM	–	–	O=C(O[C@@H]1CN[C@@H](C#Cc2cc3ncnc(Nc4ccc(OCc5cccc(F)c5)c(Cl)c4)c3s2)C1)N1CCOCC1	–	–	–	–
60 nM	50 nM	–	CCNC(=O)O[C@@H]1CN[C@@H](C#Cc2cc3ncnc(Nc4ccc(OCc5cccc(F)c5)c(Cl)c4)c3s2)C1	–	–	–	–
20 nM	32 nM	–	CCNC(=O)O[C@H]1CN[C@@H](C#Cc2cc3ncnc(Nc4ccc(OCc5cccc(F)c5)c(Cl)c4)c3s2)C1	–	–	–	–
10 nM	–	–	CN(C)C(=O)O[C@H]1CN[C@@H](C#Cc2cc3ncnc(Nc4ccc(OCc5cccc(F)c5)c(Cl)c4)c3s2)C1	–	–	–	–
30 nM	–	–	CNC(=O)O[C@H]1CN[C@H](C#Cc2cc3ncnc(Nc4ccc(OCc5cccc(F)c5)c(Cl)c4)c3s2)C1	60 nM	5000 nM	–	–
80 nM	–	–	CCN(CC)C(=O)O[C@H]1CN[C@H](C#Cc2cc3ncnc(Nc4ccc(OCc5cccc(F)c5)c(Cl)c4)c3s2)C1	250 nM	4300 nM	63 nM	50 nM
10 nM	–	–	C=CC(=O)Nc1cc2c(Nc3ccc(F)c(Cl)c3)ncnc2cc1OCCCN1CCOCC1 [CANERTINIB]	50 nM	–	–	–
30 nM	–	–	CN(C)C(=O)O[C@@H]1CN[C@@H](C#Cc2cc3ncnc(Nc4ccc(OCc5cccc(F)c5)c(Cl)c4)c3s2)C1 [GSK-238063A]	–	–	–	–
20 nM	–	–	CS(=O)(=O)CCNCc1ccc(-c2ccc3ncnc(Nc4ccc(OCc5cccc(F)c5)c(Cl)c4)c3c2)o1 [LAPATINIB DITOSYLATE]	–	–	–	–
